Results reported in ChEMBL document CHEMBL1201862, “PubChem BioAssay data set” (2004).
Activity calls are given as the source filed them.

How the values were obtained:
[1] = molecular target: T1, Nuclear receptor subfamily 0 group B member 1 (Homo sapiens, UniProt P51843); assay: Luminescence-based cell-based high throughput dose response assay for inhibitors of the orphan nuclear receptor subfamily 0, group B, member 1 (DAX1; NR0B1). [Related pubchem assays (depositor defined):AID504766, AID504790]; type: functional
T1 sequence (P51843 whole entry): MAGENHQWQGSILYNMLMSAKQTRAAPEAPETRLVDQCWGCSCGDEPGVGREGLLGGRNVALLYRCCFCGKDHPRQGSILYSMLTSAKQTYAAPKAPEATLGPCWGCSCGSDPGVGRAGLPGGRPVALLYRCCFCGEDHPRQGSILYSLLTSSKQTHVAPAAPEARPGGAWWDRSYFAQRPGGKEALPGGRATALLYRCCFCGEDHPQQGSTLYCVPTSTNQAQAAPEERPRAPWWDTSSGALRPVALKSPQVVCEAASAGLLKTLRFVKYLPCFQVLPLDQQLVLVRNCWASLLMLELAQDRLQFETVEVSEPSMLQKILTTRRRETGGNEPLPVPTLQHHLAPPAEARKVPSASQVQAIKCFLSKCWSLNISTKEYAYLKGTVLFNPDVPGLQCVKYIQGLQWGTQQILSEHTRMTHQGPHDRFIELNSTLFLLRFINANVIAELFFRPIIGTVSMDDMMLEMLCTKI

HEK293 = assay: cells; type: functional, cell-based; settings: Homo sapiens
[2] = molecular target: Voltage-gated inwardly rectifying potassium channel KCNH2 (Homo sapiens, UniProt Q12809); settings: Potency;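 note: confirmatory quantitative high-throughput screen measuring inhibition of hERG channel activity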
HeLa = assay: HeLa cell cytotoxicity, dose response, cytotoxicity control for MITF activator project, CellTiter-Glo luminescence, cherry-pick samples (AID 540259); type: functional, cell-based; settings: Homo sapiens
[3] = molecular target: T2, Sentrin-specific protease 7 (Homo sapiens, UniProt Q9BQF6); type: functional;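 note: Luminescence-based dose-response confirmation of ultra-high-throughput screening hits, measuring inhibition of SENP7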
T2 sequence (Q9BQF6 whole entry): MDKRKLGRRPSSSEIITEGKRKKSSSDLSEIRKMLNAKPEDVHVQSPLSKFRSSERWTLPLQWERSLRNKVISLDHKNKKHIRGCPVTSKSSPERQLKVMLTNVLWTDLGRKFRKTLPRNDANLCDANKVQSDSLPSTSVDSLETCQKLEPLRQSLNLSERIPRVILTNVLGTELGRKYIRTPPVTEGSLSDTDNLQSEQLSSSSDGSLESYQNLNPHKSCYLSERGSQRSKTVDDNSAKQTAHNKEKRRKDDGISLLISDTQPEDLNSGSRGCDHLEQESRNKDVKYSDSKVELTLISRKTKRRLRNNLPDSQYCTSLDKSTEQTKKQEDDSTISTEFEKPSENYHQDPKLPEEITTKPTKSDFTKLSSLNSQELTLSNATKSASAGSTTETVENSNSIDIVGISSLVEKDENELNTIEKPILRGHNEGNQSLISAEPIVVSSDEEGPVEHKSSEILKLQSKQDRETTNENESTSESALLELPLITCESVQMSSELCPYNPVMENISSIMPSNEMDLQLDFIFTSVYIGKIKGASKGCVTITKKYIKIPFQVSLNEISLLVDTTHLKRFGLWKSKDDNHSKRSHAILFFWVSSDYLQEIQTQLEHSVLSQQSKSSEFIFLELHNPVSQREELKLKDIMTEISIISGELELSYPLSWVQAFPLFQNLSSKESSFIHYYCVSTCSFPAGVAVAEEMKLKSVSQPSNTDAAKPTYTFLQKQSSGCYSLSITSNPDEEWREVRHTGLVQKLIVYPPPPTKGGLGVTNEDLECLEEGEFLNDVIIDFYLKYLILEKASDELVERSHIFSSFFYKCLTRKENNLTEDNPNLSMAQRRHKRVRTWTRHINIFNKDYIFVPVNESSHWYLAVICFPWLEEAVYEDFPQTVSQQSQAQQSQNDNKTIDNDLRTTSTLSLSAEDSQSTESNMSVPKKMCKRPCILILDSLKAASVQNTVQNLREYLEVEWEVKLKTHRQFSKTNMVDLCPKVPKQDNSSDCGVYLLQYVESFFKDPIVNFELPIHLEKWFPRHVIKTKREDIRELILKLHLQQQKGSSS

[4] = molecular target: T3, Sentrin-specific protease 8 (Homo sapiens, UniProt Q96LD8); type: functional;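 note: luminescence read-out of SENP8 inhibition, dose-response confirmation following an ultra-high-throughput screen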
T3 sequence (Q96LD8 whole entry): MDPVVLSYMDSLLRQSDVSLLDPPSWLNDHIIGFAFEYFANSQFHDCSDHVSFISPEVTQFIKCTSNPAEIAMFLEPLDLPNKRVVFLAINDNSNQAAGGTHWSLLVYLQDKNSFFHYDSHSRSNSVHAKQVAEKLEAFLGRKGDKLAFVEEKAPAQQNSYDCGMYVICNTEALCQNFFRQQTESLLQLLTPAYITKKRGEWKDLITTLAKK

Caspase-3 = molecular target: T4, Caspase-3 (Homo sapiens, UniProt P42574); type: functional;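 note: Dose-response selectivity test against caspase-3 for candidate inhibitors of sentrin-specific proteases (SENPs)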
T4 sequence (P42574 whole entry): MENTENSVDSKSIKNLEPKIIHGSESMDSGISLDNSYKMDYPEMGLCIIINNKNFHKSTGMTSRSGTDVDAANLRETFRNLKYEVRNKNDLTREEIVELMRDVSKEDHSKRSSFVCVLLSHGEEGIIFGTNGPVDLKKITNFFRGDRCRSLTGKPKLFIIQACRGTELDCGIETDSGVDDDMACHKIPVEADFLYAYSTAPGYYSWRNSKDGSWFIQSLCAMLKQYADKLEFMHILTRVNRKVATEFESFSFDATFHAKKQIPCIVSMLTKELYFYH

[5] = molecular target: T5, Sentrin-specific protease 6 (Homo sapiens, UniProt Q9GZR1); type: functional;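 note: Luminescence-based dose-response confirmatory assay of SENP6 inhibition, following up an ultra-high-throughput screen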
T5 sequence (Q9GZR1 whole entry): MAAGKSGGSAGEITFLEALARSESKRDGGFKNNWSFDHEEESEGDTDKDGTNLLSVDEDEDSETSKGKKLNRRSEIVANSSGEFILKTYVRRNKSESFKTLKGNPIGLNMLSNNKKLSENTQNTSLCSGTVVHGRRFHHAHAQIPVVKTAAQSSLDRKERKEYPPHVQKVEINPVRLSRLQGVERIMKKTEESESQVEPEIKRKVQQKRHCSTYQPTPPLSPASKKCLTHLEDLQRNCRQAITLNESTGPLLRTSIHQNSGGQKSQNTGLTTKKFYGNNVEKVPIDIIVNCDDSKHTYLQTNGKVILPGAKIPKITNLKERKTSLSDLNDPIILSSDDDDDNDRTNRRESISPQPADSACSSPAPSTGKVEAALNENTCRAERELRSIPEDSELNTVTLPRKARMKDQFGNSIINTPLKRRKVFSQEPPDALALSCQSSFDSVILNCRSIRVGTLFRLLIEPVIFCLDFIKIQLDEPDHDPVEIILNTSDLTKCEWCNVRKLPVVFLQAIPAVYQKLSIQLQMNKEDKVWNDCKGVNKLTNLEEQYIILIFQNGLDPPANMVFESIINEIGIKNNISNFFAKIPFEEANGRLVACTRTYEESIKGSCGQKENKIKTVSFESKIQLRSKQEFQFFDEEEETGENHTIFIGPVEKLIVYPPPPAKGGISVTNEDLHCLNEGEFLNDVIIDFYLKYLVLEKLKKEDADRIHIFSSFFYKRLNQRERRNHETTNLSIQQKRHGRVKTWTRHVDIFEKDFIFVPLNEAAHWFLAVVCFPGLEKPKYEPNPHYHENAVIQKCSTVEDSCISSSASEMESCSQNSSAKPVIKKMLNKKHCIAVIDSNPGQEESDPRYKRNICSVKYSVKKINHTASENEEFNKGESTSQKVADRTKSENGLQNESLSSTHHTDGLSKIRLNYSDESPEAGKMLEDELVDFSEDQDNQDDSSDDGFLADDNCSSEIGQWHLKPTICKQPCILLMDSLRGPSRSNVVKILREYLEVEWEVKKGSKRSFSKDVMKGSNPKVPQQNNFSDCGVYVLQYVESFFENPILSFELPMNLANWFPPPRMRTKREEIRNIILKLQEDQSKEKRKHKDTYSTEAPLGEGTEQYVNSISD

[6] = molecular target: T6, Serine/threonine-protein phosphatase (Candida dubliniensis (strain CD36 / CBS 7987 / NCPF 3949 / NRRLY-17841) (Yeast), UniProt B9W6M3); assay: calcineurin pathway inhibitors in yeast reporter, dose response, S. cerevisiae, CDRE-lacZ, luminescence, secondary (AID 2388); type: functional, cell-based;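 note: yeast reporter cells carrying a calcineurin-responsive lacZ construct stimulated with calcium chloride; luminescent beta-galactosidase reporter signal in whole cells rather than isolated phosphatase activity; potency for inhibition where a drop in reporter signal means calcineurin blockade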
T6 sequence (B9W6M3 whole entry): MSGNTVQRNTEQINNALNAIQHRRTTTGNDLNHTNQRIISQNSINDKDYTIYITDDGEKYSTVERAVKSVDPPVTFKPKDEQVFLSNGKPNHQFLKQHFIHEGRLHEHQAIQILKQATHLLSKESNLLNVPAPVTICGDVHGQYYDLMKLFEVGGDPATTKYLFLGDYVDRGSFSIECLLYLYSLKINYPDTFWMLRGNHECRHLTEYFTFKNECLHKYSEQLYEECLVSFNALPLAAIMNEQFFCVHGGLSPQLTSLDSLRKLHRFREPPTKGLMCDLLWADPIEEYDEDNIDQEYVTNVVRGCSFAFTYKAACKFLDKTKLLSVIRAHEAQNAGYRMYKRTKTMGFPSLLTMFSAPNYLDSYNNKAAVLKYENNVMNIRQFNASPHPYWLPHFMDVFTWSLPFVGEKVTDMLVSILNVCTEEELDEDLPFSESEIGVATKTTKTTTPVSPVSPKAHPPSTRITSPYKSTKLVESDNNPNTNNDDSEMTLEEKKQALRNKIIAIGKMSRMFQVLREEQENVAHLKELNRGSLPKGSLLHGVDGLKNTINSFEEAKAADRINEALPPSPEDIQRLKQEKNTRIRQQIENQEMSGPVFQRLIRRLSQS

[7] = NIH-3T3 fibroblast cytotoxicity, dose response, cytotoxicity control, cell-based, fluorescence, Alamar Blue, secondary assay (AID 2327); type: functional;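 note: NIH-3T3 mouse fibroblasts cultured with fluconazole at 8 µg/mL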
[8] = C. albicans growth with fluconazole, confirmation, fluorescence, retest (AID 2467); type: functional, cell-based
[9] = molecular target: ATP-dependent molecular chaperone HSP82 (Candida albicans (strain WO-1) (Yeast), UniProt C4YTQ8); assay: loss of DOC-induced GRE-beta-galactosidase reporter signal, dose response, Hsp90 inhibitor project, S. cerevisiae, luminescence (AID 2400); type: functional, cell-based;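 note: beta-galactosidase luminescence from glucocorticoid response element reporter as proxy for Hsp90 function; inhibitor potency where signal loss means Hsp90 inhibition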
Beta-galactosidase = Beta-galactosidase (Escherichia coli, UniProt Q8VNN2); assay: PubChem AID 485352; type: functional
[10] = molecular target: T7, Type-1 angiotensin II receptor (Homo sapiens, UniProt P30556); assay: AT1 receptor antagonists, dose response, selectivity assay for APJ receptor antagonist project, cell-based, uHTS hits (AID 463214); type: functional;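 note: antagonist potency against angiotensin II stimulated AT1 response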
T7 sequence (P30556 whole entry): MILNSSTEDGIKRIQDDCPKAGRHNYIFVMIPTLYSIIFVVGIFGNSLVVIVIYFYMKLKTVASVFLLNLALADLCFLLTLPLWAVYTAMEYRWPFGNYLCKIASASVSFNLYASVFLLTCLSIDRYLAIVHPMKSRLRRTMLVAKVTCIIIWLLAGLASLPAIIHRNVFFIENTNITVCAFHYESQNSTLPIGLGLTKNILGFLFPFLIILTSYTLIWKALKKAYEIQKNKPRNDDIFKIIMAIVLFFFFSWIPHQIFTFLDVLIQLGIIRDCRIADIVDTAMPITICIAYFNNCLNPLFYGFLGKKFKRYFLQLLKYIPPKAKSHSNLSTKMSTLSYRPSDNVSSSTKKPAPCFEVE

[11] = HEp-2 cell cytotoxicity, dose response, cytotoxicity control for RSV inhibitor project, HTS (AID 2410); type: functional; settings: human respiratory syncytial virus
Vero = Vero cell cytotoxicity, cytotoxicity control for flavivirus capping enzyme inhibitors (AID 588742); type: functional; settings: Chlorocebus sabaeus

Chain of Beta-galactosidase (Q8VNN2 whole entry): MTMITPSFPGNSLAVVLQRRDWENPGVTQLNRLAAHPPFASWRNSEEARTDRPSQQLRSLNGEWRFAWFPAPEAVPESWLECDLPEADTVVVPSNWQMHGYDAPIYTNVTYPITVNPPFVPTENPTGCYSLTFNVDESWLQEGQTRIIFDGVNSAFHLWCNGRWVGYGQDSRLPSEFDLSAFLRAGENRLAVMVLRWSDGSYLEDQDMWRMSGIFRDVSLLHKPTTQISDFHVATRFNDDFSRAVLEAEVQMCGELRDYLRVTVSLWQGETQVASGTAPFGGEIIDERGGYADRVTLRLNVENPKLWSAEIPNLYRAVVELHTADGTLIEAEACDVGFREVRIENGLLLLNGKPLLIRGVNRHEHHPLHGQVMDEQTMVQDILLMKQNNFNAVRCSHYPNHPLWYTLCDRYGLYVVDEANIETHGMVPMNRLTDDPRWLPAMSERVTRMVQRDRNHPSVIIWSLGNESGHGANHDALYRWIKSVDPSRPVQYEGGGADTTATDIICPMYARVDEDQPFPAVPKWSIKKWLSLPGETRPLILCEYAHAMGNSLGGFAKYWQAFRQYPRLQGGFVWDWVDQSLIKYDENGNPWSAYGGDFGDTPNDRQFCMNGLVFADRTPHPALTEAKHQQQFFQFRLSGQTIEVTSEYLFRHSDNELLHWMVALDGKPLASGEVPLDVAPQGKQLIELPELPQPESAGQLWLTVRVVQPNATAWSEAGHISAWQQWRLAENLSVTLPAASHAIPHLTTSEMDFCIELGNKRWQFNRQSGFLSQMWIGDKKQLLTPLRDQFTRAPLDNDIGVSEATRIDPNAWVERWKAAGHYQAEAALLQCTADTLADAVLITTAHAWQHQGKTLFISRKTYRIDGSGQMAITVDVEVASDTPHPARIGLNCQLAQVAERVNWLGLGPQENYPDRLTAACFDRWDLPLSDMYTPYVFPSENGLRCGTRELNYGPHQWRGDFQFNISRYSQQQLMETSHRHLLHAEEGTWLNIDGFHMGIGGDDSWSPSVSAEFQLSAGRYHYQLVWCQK
Chain of ATP-dependent molecular chaperone HSP82 (C4YTQ8 whole entry): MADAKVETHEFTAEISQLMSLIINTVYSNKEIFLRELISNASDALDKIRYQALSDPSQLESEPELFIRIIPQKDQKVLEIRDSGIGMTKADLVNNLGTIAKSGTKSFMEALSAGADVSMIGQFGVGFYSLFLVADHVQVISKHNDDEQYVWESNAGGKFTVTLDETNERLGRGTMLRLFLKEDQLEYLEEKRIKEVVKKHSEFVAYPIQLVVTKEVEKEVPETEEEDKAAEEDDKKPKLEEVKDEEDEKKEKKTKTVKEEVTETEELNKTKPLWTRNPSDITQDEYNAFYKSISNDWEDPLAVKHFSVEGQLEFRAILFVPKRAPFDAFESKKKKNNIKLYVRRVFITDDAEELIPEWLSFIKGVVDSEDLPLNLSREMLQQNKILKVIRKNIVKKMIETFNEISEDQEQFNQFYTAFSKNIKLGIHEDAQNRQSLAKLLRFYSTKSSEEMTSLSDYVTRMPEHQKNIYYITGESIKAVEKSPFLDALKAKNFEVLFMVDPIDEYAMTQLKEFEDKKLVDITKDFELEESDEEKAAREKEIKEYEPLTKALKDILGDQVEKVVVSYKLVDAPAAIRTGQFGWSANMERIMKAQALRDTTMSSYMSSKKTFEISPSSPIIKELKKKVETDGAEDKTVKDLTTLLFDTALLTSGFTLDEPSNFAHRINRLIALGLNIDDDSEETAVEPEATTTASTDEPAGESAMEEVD
Chain of Voltage-gated inwardly rectifying potassium channel KCNH2 (Q12809 whole entry): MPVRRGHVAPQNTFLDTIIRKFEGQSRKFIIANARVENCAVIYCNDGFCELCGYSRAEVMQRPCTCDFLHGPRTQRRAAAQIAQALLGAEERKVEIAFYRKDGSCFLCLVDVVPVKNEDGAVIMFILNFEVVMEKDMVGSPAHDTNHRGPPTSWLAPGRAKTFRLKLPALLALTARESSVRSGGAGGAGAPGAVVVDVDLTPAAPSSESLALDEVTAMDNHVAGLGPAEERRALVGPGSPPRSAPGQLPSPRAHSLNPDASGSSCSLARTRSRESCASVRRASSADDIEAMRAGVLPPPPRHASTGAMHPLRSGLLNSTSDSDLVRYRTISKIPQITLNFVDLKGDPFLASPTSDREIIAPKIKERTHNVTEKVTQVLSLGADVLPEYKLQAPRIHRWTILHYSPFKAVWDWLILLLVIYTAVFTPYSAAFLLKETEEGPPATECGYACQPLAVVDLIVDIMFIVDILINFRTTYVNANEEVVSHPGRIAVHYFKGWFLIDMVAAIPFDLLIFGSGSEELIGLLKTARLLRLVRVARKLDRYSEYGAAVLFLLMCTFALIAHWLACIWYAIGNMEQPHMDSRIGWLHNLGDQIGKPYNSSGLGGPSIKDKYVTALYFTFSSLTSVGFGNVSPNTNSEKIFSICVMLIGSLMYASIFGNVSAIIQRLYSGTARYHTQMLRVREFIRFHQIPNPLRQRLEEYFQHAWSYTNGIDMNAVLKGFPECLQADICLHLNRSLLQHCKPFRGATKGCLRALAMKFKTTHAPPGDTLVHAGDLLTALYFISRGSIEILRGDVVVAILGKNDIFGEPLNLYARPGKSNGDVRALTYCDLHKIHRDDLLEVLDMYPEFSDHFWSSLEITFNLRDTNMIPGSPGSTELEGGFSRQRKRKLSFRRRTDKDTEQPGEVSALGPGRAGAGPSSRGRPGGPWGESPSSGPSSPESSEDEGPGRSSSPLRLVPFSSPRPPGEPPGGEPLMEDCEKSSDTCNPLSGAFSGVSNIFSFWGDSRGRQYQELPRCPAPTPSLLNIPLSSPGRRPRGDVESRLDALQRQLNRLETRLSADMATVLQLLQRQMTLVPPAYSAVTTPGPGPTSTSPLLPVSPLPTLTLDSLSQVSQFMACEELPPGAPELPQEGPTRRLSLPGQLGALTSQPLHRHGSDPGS

CCOC(=O)c1nn(-c2ccc(Cl)cc2)cc1O
IC50 [1]: > 67.5 µM (inactive)
IC50 (HEK293): > 67.5 µM (inactive)

Cc1ccc2c(c1N)C(=O)c1ccccc1C2=O
AC50 [2]: 35.5 µM (inconclusive)
AC50 (HeLa): 36 µM (active)
IC50 [3]: 4.33 µM (active)
IC50 [4]: > 100 µM (inactive)
IC50 (Caspase-3): 11.8 µM (active)
IC50 [5]: 42.3 µM (active)

CCOc1ccc(-n2c(=O)[nH]c3sc4c(c3c2=O)CCCC4)cc1
IC50 [1]: > 67.6 µM (inactive)
IC50 (HEK293): > 67.6 µM (inactive)

COc1ccc(-n2nc(C(=O)NCC(=O)NCCC3=CCCCC3)c3ccccc3c2=O)c(OC)c1
EC50 [6]: > 180 µM (inactive)
EC50 [7]: > 150 µM (inactive)
EC50 [8]: 0.469 µM (active)
EC50 [9]: > 150 µM (inactive)

O=C(CN1C(=O)C2C3C=CC(C3)C2C1=O)OCC(=O)c1ccc(Cl)c([N+](=O)[O-])c1 (stereo unspecified)
EC50 (Beta-galactosidase): > 40 µM (inactive)
IC50 [10]: 14.3 µM (active)

O=C(CNc1ccccc1C(=O)O)c1ccccc1
EC50 (Beta-galactosidase): > 40 µM (inactive)
IC50 [10]: 7.51 µM (active)

COc1ccccc1N1CCN(C(S)=Nc2ccc3nc(N4CCOCC4)cc(C)c3c2)CC1
CC50 [11]: 39.1 µM (active)
CC50 (Vero): > 40 µM (active)

C/C(=N\NC(=O)c1nn(C)cc1Br)c1ccncc1
IC50 [1]: > 67.6 µM (inactive)
IC50 (HEK293): > 67.6 µM (inactive)

Cc1nn(-c2ccccc2)c(C)c1C(=O)OC/C(O)=C(\C#N)c1nc2ccccc2[nH]1
EC50 [6]: > 180 µM (inactive)
EC50 [7]: > 150 µM (inconclusive)
EC50 [8]: 0.764 µM (active)
EC50 [9]: > 150 µM (inactive)
